From patent publication US9908868B2, “Isoindolinone compounds as GPR119 modulators for the treatment of diabetes, obesity, dyslipidemia and related disorders” (SANOFI, priority 2014, dated 2018)
pEC50: −log10 of the molar value.

target: T1, human GPR119 (Homo sapiens, UniProt Q8TDV5); assay: Functional cellular assay measuring GPR119-mediated cAMP release (HTRF) in HEK-293 cells stably expressing recombinant human GPR119; type: cell-based; conditions: cAMP response, cell line expressing human GPR119, 30 minutes at room temperature
T1 construct: expressed in transfected cells
T1 sequence (Q8TDV5 1-335): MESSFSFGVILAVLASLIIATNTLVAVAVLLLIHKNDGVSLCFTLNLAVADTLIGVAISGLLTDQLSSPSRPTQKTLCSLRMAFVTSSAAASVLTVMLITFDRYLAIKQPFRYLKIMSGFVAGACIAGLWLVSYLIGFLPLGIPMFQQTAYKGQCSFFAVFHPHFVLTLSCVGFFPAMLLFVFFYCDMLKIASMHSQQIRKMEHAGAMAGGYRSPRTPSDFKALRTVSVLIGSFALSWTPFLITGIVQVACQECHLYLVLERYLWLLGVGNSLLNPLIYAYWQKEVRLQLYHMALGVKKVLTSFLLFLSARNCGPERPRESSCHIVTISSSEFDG
How it was run: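 HEK-293 cells stably expressing recombinant human GPR119, suspended at 400000 cells/mL in HBSS/20 mM HEPES/0.1% BSA/2 mM IBMX, exposed to compound for 30 minutes at room temperature. cAMP detected by HTRF (665/620 nm ratio) after 1 h with reagents in lysis buffer. EC50 taken as concentration giving 50% of maximal activation.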

SMILES | pEC50
CC1(CN2Cc3c(F)cc(N4CC[C@@H](Oc5ccc(OCCC6CC6)nc5)C4=O)cc3C2=O)COC1 [Example 5-03, 6-[(3R)-3-[[6-(2-cyclopropylethoxy)-3-pyridyl]oxy]-2-oxo-pyrrolidin-1-yl]-4-fluoro-2-[(3-methyloxetan-3-yl)methyl]isoindolin-1-one] | 5.60
CN1Cc2c(F)cc(N3CC[C@@H](Oc4ccc(OCCC5CC5)nc4)C3=O)cc2C1=O [Example 5-04, 6-[(3R)-3-[[6-(2-cyclopropylethoxy)-3-pyridyl]oxy]-2-oxo-pyrrolidin-1-yl]-4-fluoro-2-methyl-isoindolin-1-one] | 5.91
CC(C)N1Cc2c(F)cc(N3CC[C@@H](Oc4ccc(OCCC5CC5)nc4)C3=O)cc2C1=O [Example 5-05, 6-[(3R)-3-[[6-(2-cyclopropylethoxy)-3-pyridyl]oxy]-2-oxo-pyrrolidin-1-yl]-4-fluoro-2-isopropyl-isoindolin-1-one] | 5.30
O=C1c2cc(N3CC[C@@H](Oc4ccc(OCCC5CC5)nc4)C3=O)cc(F)c2CN1CCCO [Example 5-06, 6-[(3R)-3-[[6-(2-cyclopropylethoxy)-3-pyridyl]oxy]-2-oxo-pyrrolidin-1-yl]-4-fluoro-2-(3-hydroxypropyl)isoindolin-1-one] | 6.22
CN(C)C(=O)CN1Cc2c(F)cc(N3CC[C@@H](Oc4ccc(OCC(F)(F)F)nc4)C3=O)cc2C1=O [Example 6-01, 2-[4-fluoro-1-oxo-6-[(3R)-2-oxo-3-[[6-(2,2,2-trifluoroethoxy)-3-pyridyl]oxy]pyrrolidin-1-yl]isoindolin-2-yl]-N,N-dimethyl-acetamide] | 7.11
CN(C)C(=O)CN1Cc2c(F)cc(N3CC[C@@H](Oc4ccc(OCC(C)(C)C)nc4)C3=O)cc2C1=O [Example 6-02, 2-[6-[(3R)-3-[[6-(2,2-dimethylpropoxy)-3-pyridyl]oxy]-2-oxo-pyrrolidin-1-yl]-4-fluoro-1-oxo-isoindolin-2-yl]-N,N-dimethyl-acetamide] | 6.90
C=CCOc1ccc(O[C@@H]2CCN(c3cc(F)c4c(c3)C(=O)N(CC(=O)N(C)C)C4)C2=O)cn1 [Example 6-03, 2-[6-[(3R)-3-[(6-allyloxy-3-pyridyl)oxy]-2-oxo-pyrrolidin-1-yl]-4-fluoro-1-oxo-isoindolin-2-yl]-N,N-dimethyl-acetamide] | 7.19
CN(C)C(=O)CN1Cc2c(F)cc(N3CC[C@@H](Oc4ccc(OCC5CCC5)nc4)C3=O)cc2C1=O [Example 6-04, 2-[6-[(3R)-3-[[6-(cyclobutylmethoxy)-3-pyridyl]oxy]-2-oxo-pyrrolidin-1-yl]-4-fluoro-1-oxo-isoindolin-2-yl]-N,N-dimethyl-acetamide] | 7.46
